This passage reports IC50 results from US9321776B2, “Isochromene derivatives as phoshoinositide 3-kinases inhibitors” (CHIESI FARMACEUTICI S.p.A., priority 2013, dated 2016).

Structures can show the parent of a compound that is named as a salt.

What all share (experiment): PI3K enzyme inhibitory activity in the cell free assay (ADP-Glo Kinase Assay)
Holding throughout (assay type): biochemical
On the technique in general: ADP-Glo turns the ADP formed in a reaction into a luminescent signal.

Test [1] has as its target T1, PI3Kα (Homo sapiens, UniProt P42336).
T1 construct: purchased Millipore Ltd (Billerica, Mass.)
Conditions: human recombinant PI3Kα, ATP 50 μM; read-out: PI3K alpha inhibition.

The target in test [2] is T2, PI3Kδ (Homo sapiens, UniProt O00329).
T2 construct: purchased Millipore Ltd (Billerica, Mass.)
T2 sequence (O00329 1-1044): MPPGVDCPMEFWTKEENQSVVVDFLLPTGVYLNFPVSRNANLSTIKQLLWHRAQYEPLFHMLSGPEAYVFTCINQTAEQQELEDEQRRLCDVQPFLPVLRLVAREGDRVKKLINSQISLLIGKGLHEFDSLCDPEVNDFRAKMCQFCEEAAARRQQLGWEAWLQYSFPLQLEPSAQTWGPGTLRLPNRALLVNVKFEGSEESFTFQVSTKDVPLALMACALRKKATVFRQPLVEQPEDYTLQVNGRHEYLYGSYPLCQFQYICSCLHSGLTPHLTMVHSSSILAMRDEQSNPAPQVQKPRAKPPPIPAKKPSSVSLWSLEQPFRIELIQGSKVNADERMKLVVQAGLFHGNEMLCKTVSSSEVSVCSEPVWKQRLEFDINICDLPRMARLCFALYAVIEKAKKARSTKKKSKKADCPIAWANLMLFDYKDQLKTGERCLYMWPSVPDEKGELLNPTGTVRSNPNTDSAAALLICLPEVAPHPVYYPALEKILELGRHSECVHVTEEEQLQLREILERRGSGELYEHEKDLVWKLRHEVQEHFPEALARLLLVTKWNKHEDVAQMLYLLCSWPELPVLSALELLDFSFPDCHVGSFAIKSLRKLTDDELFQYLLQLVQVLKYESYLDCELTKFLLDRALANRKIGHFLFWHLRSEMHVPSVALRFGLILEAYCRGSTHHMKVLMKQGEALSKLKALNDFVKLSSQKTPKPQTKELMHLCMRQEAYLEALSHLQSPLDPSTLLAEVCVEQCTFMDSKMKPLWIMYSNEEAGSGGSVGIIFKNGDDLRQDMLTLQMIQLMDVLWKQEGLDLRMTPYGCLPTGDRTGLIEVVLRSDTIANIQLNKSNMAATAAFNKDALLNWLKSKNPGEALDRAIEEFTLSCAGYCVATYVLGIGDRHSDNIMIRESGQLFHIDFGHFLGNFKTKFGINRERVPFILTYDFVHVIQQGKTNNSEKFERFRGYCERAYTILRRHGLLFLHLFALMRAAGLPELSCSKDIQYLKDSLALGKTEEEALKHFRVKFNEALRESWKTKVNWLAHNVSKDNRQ
Conditions: human recombinant PI3Kδ, ATP 80 μM; read-out: PI3K delta inhibition.

For test [3], the target named is T3, PI3Kβ (Homo sapiens, UniProt P42338).
T3 construct: purchased Millipore Ltd (Billerica, Mass.)
T3 sequence (P42338 whole entry): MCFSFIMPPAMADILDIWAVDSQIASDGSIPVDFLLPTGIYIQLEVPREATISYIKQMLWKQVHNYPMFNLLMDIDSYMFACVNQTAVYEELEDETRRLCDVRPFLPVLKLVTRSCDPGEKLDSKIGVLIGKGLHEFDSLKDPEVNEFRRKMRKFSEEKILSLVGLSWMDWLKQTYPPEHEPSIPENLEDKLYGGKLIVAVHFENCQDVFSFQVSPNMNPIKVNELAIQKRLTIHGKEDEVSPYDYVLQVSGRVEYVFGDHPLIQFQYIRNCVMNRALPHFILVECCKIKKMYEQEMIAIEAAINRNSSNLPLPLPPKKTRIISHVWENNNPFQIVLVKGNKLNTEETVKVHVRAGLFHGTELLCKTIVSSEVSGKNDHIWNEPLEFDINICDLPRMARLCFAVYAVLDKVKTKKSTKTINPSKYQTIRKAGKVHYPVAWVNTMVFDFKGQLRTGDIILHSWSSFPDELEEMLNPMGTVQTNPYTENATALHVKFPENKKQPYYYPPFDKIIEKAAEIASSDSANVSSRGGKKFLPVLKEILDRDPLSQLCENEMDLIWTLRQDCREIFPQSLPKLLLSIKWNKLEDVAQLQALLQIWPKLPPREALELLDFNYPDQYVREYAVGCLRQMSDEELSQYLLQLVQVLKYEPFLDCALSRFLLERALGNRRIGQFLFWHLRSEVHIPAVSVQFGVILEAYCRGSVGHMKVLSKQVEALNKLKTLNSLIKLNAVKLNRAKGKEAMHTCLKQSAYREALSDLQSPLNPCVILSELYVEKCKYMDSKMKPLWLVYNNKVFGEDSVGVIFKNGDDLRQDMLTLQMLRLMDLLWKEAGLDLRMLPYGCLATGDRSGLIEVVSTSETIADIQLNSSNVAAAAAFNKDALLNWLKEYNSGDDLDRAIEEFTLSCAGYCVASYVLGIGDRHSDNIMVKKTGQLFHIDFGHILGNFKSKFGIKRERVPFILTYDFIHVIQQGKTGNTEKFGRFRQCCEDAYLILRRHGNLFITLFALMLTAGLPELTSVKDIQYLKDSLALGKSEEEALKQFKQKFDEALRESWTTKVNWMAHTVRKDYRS
As to conditions: human recombinant PI3Kβ, ATP 100 μM; read-out: PI3K beta inhibition.

Test [4] concerns the target T4, PI3Kγ (Homo sapiens, UniProt P48736).
T4 construct: purchased Millipore Ltd (Billerica, Mass.)
As to conditions: human recombinant PI3Kγ, ATP 30 μM; read-out: PI3K gamma inhibition.

T4 sequence (P48736 whole entry): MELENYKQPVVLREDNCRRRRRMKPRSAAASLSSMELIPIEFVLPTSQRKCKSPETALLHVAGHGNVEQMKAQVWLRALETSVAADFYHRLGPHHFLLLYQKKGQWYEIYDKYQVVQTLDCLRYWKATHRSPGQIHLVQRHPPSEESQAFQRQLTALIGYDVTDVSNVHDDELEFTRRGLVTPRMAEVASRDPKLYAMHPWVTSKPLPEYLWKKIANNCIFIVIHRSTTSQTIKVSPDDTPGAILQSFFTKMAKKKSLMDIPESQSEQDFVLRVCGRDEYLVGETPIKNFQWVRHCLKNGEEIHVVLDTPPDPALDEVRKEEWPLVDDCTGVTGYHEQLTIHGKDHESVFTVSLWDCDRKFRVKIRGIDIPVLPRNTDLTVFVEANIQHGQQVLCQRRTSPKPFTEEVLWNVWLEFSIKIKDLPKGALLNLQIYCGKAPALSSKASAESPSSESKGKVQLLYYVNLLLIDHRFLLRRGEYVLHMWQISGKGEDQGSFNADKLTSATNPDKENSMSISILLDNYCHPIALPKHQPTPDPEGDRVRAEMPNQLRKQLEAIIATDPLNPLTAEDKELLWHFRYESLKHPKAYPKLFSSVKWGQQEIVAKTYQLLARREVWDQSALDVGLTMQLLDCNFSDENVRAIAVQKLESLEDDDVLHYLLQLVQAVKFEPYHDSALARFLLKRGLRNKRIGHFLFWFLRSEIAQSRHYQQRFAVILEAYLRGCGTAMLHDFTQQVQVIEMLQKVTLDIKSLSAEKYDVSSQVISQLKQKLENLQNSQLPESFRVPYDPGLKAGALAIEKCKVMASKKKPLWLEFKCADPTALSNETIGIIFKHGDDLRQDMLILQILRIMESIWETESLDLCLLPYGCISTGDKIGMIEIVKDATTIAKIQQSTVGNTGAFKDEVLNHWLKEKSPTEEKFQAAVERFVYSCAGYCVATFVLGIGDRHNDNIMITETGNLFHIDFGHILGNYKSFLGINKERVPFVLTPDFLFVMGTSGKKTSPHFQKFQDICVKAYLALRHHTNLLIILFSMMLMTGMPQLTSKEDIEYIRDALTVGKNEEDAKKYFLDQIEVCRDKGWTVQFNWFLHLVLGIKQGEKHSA
T1 sequence (P42336 whole entry): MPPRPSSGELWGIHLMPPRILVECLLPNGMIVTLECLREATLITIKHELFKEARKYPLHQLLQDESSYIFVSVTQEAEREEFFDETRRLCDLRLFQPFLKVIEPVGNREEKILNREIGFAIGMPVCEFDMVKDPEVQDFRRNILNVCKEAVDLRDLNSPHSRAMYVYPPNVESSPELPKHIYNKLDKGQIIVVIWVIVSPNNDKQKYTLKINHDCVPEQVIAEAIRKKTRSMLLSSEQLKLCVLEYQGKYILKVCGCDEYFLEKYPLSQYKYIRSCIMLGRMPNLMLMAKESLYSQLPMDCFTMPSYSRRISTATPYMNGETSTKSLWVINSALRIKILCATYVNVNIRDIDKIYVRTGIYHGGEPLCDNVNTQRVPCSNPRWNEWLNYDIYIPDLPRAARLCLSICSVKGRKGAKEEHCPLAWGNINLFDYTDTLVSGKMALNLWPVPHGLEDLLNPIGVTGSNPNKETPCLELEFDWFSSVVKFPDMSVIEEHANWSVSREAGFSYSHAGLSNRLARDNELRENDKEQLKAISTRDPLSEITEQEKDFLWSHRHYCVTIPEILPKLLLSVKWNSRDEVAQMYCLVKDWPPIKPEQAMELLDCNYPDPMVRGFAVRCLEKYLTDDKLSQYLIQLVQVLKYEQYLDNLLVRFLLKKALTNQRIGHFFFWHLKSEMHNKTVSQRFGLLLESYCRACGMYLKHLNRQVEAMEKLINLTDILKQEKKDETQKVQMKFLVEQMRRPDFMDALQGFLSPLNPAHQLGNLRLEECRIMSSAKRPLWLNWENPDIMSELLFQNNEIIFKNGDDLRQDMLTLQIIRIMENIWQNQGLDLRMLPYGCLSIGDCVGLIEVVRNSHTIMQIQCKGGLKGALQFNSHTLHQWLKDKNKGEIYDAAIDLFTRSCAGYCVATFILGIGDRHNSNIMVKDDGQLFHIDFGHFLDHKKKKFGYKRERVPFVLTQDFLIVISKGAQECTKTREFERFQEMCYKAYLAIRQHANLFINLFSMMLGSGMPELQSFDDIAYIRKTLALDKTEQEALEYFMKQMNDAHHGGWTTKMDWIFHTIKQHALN

On to `CC(c1oc(=O)c2ccccc2c1C1=CCNCC1)n1nc(-c2cc(O)cc(C(F)(F)F)c2)c2c(N)ncnc21` (stereo not shown) [Example 153, 3-(1-(4-amino-3-(3-hydroxy-5-(trifluoromethyl)phenyl)-1H-pyrazolo[3,4-d]pyrimidin-1-yl)ethyl)-4-(1,2,3,6-tetrahydropyridin-4-yl)-1H-isochromen-1-one formate], for which the IC50 in test [1] is over 1000 nM; in test [2], under 10 nM; in test [3], 10 to 1000 nM; in test [4] it was over 1000 nM.
With `CC(c1oc(=O)c2ccccc2c1C1=CCN(C)CC1)n1nc(-c2cc(O)cc(Cl)c2)c2c(N)ncnc21` (stereo not shown) [Example 154, 3-(1-(4-amino-3-(3-chloro-5-hydroxyphenyl)-1H-pyrazolo[3,4-d]pyrimidin-1-yl)ethyl)-4-(1-methyl-1,2,3,6-tetrahydropyridin-4-yl)-1H-isochromen-1-one formate], the IC50 in test [1] is over 1000 nM; in test [2] it was under 10 nM; in test [3], 10 to 1000 nM; in test [4], over 1000 nM.
For `CC(c1oc(=O)c2ccccc2c1C1=CCN(C)CC1)n1nc(-c2cc(O)cc(C(F)(F)F)c2)c2c(N)ncnc21` (stereo not shown) [Example 155, 3-(1-(4-amino-3-(3-hydroxy-5-(trifluoromethyl)phenyl)-1H-pyrazolo[3,4-d]pyrimidin-1-yl)ethyl)-4-(1-methyl-1,2,3,6-tetrahydropyridin-4-yl)-1H-isochromen-1-one formate], the IC50 in test [1] was over 1000 nM; in test [2], 10 to 1000 nM; in test [3], 10 to 1000 nM; in test [4], over 1000 nM.
Turning to `CC(c1oc(=O)c2ccccc2c1C1=CCN(C2CNC2)CC1)n1nc(-c2cc(O)cc(F)c2)c2c(N)ncnc21` (stereo not shown) [Example 156, 3-(1-(4-amino-3-(3-fluoro-5-hydroxyphenyl)-1H-pyrazolo[3,4-d]pyrimidin-1-yl)ethyl)-4-(1-(azetidin-3-yl)-1,2,3,6-tetrahydropyridin-4-yl)-1H-isochromen-1-one dihydrochloride], the IC50 in test [1] was over 1000 nM; in test [2], under 10 nM; in test [3], 10 to 1000 nM; in test [4] it was 10 to 1000 nM.
For `CC(c1oc(=O)c2ccccc2c1C1=CCN(C2CN(CC3CC3)C2)CC1)n1nc(-c2cc(O)cc(F)c2)c2c(N)ncnc21` (stereo not shown) [Example 157, 3-(1-(4-amino-3-(3-fluoro-5-hydroxyphenyl)-1H-pyrazolo[3,4-d]pyrimidin-1-yl)ethyl)-4-(1-(1-(cyclopropylmethyl)azetidin-3-yl)-1,2,3,6-tetrahydropyridin-4-yl)-1H-isochromen-1-one dihydrochloride], the IC50 in test [1] was over 1000 nM; in test [2] it was under 10 nM; in test [3], 10 to 1000 nM; in test [4], 10 to 1000 nM.
With `CC(c1oc(=O)c2ccccc2c1-c1ccccc1)n1nc(-c2cnc(C(F)(F)F)c(O)c2)c2c(N)ncnc21` (stereo not shown) [Example 161, 3-(1-(4-amino-3-(5-hydroxy-6-(trifluoromethyl)pyridin-3-yl)-1H-pyrazolo[3,4-d]pyrimidin-1-yl)ethyl)-4-phenyl-1H-isochromen-1-one], the IC50 is over 1000 nM in test [1], under 10 nM in test [2], over 1000 nM in test [3] and over 1000 nM in test [4].
For the molecule `CC(c1oc(=O)c2ccc(Cl)cc2c1-c1ccccc1)n1nc(-c2cc(O)cc(F)c2)c2c(N)ncnc21` (stereo not shown) [Example 164, 3-(1-(4-amino-3-(3-fluoro-5-hydroxyphenyl)-1H-pyrazolo[3,4-d]pyrimidin-1-yl)ethyl)-6-chloro-4-phenyl-1H-isochromen-1-one], the IC50 in test [1] was over 1000 nM; in test [2], under 10 nM; in test [3] it was 10 to 1000 nM; in test [4], 10 to 1000 nM.
Consider `CC(c1oc(=O)c2ccc(F)cc2c1-c1ccccc1)n1nc(-c2cc(O)cc(F)c2)c2c(N)ncnc21` (stereo not shown) [Example 165, 3-(1-(4-amino-3-(3-fluoro-5-hydroxyphenyl)-1H-pyrazolo[3,4-d]pyrimidin-1-yl)ethyl)-6-fluoro-4-phenyl-1H-isochromen-1-one], for which the IC50 is over 1000 nM in test [1], under 10 nM in test [2], 10 to 1000 nM in test [3] and 10 to 1000 nM in test [4].
As for `CC(c1oc(=O)c2ccccc2c1C1=CCCN(Cc2ccccc2)C1)n1nc(-c2cc(O)cc(F)c2)c2c(N)ncnc21` (stereo not shown) [Example 169, 3-(1-(4-amino-3-(3-fluoro-5-hydroxyphenyl)-1H-pyrazolo[3,4-d]pyrimidin-1-yl)ethyl)-4-(1-benzyl-1,2,5,6-tetrahydropyridin-3-yl)-1H-isochromen-1-one hydrochloride], the IC50 is over 1000 nM in test [1], under 10 nM in test [2], 10 to 1000 nM in test [3] and 10 to 1000 nM in test [4].
On to `CC(c1oc(=O)c2ccccc2c1-c1ccccn1)n1nc(-c2cc(O)cc(F)c2)c2c(N)ncnc21` (stereo not shown) [Example 170, 3-(1-(4-amino-3-(3-fluoro-5-hydroxyphenyl)-1H-pyrazolo[3,4-d]pyrimidin-1-yl)ethyl)-4-(pyridin-2-yl)-1H-isochromen-1-one hydrochloride], for which the IC50 is 10 to 1000 nM in test [1], under 10 nM in test [2], 10 to 1000 nM in test [3] and 10 to 1000 nM in test [4].
For `CC(c1oc(=O)c2ccccc2c1C1=CCCN(C2CCN(C)CC2)C1)n1nc(-c2cc(O)cc(F)c2)c2c(N)ncnc21` (stereo not shown) [Example 172, 3-(1-(4-amino-3-(3-fluoro-5-hydroxyphenyl)-1H-pyrazolo[3,4-d]pyrimidin-1-yl)ethyl)-4-(1-(1-methylpiperidin-4-yl)-1,2,5,6-tetrahydropyridin-3-yl)-1H-isochromen-1-one dihydrochloride], the IC50 in test [1], in test [2], in test [3] and in test [4] was 10 to 1000 nM each time.
Turning to `CC(c1oc(=O)c2ccccc2c1C1=CCCN(C2CNC2)C1)n1nc(-c2cc(O)cc(F)c2)c2c(N)ncnc21` (stereo not shown) [Example 173, 3-(1-(4-amino-3-(3-fluoro-5-hydroxyphenyl)-1H-pyrazolo[3,4-d]pyrimidin-1-yl)ethyl)-4-(1-(azetidin-3-yl)-1,2,5,6-tetrahydropyridin-3-yl)-1H-isochromen-1-one dihydrochloride], the IC50 was 10 to 1000 nM in test [1], under 10 nM in test [2], 10 to 1000 nM in test [3] and 10 to 1000 nM in test [4].
On to `CC(C)N1CCC=C(c2c(C(C)n3nc(-c4cc(O)cc(F)c4)c4c(N)ncnc43)oc(=O)c3ccccc23)C1` (stereo not shown) [Example 174, 3-(1-(4-amino-3-(3-fluoro-5-hydroxyphenyl)-1H-pyrazolo[3,4-d]pyrimidin-1-yl)ethyl)-4-(1-isopropyl-1,2,5,6-tetrahydropyridin-3-yl)-1H-isochromen-1-one hydrochloride], for which the IC50 in test [1], in test [2], in test [3] and in test [4] was 10 to 1000 nM throughout.
For `CC(c1oc(=O)c2ccccc2c1C1=CCN(C)CC1)n1nc(-c2cncc(O)c2)c2c(N)ncnc21` (stereo not shown) [Example 175, 3-(1-(4-amino-3-(5-hydroxypyridin-3-yl)-1H-pyrazolo[3,4-d]pyrimidin-1-yl)ethyl)-4-(1-methyl-1,2,3,6-tetrahydropyridin-4-yl)-1H-isochromen-1-one hydrochloride], the IC50 in test [1] is 10 to 1000 nM; in test [2] it was under 10 nM; in test [3], under 10 nM; in test [4], 10 to 1000 nM.
Regarding `CC(c1oc(=O)c2ccccc2c1-c1ccccc1)n1nc(I)c2c(N)ncnc21` (stereo not shown) [Int D2, 3-(1-(4-Amino-3-iodo-1H-pyrazolo[3,4-d]pyrimidin-1-yl)ethyl)-4-phenyl-1H-isochromen-1-one], the IC50 in test [1] was over 1000 nM; in test [2], under 10 nM; in test [3] it was 10 to 1000 nM; in test [4], 10 to 1000 nM.
Regarding `Cc1cccc(-c2c(C(C)n3nc(I)c4c(N)ncnc43)oc(=O)c3ccccc23)c1` (stereo not shown) [Int D3, 3-(1-(4-Amino-3-iodo-1H-pyrazolo[3,4-d]pyrimidin-1-yl)ethyl)-4-m-tolyl-1H-isochromen-1-one], the IC50 in test [1] was over 1000 nM; in test [2], under 10 nM; in test [3], over 1000 nM; in test [4], 10 to 1000 nM.
